Test in all cases: NCI tumour cell line growth inhibition, 48 h
Assay [1] concerns OVCAR-3.
For assay [2], the system named is SNB-75.
For assay [3], the system named is NCI-H522.
Assay [4] deals with SK-MEL-5.
Assay [5] has as its system LXFL 529.
The test system of assay [6] is TK-10.
In assay [7] the test system is A498.
Assay [8] concerns RPMI-8226.
Assay [9] concerns NCI-H23.
Assay [10] relates to 786-0.
For assay [11], the system named is M14.
In assay [12] the test system is UACC-62.
For assay [13], the system named is SF-539.
Assay [14] relates to CAKI-1.
In assay [15] the test system is OVCAR-8.
In assay [16] the test system is HOP-62.
Assay [17] has as its system SNB-19.

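Tested at 5 concentrations; 48 h exposure; 96-well plates; endpoints linearly interpolated, else capped at highest concentration. Here, GI50 denotes the concentration required for 50% inhibition of growth.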 Activity calls are given as the source filed them. No stated cut-off is given here; in the data, active = GI50 up to about 1.1 µM and inactive = higher.

As to `COC(=O)Cc1c([C@@]2(C)CCCC(C)(C)C2)ccc2c1C(=O)OC2`, the GI50 in assay [1] was 5.25 µM (inactive); in assay [2], 14.3 µM (inactive); in assay [3], 5.04 µM (inactive); in [4] it was 7.36 µM (inactive); in assay [5] it was 7.29 µM (inactive); in assay [6], 17.9 µM (inactive). The GI50 is 25.5 µM (inactive) in assay [7]; 2.7 µM (inactive) in assay [8]; 9.35 µM (inactive) in [9]; 15.7 µM (inactive) in assay [10]; 10.5 µM (inactive) in assay [11]; 10.6 µM (inactive) in assay [12]. For the same compound, the GI50 in assay [13] was 15.6 µM (inactive); in [14] it was > 10 µM (inactive); in [15] it was 15.3 µM (inactive).

With `CCCC1C[C@H]2CCCCN2[C@H]2CCCN12` (stereo partly specified), the GI50 in [1] is > 100 µM (inactive); in assay [16], > 100 µM (inactive); in assay [2], > 100 µM (inactive); in [3] it was > 100 µM (inactive); in assay [4] it was > 100 µM (inactive); in assay [5], > 69.3 µM (inactive). For the same compound, the GI50 in [17] is > 100 µM (inactive); in [6], > 100 µM (inactive); in assay [7] it was > 100 µM (inactive); in assay [8], > 43.4 µM (inactive); in assay [9], > 100 µM (inactive); in [10] it was > 100 µM (inactive). Moreover, the GI50 in assay [11], in assay [12], in [13], in [14] and in [15] was > 100 µM (inactive) each time.

With `Cc1cc2c3c(coc3c1-c1c(C)cc3c4c(coc14)C(=O)C(O)=C3C(C)C)C(=O)C(O)=C2C(C)C`, the GI50 is 5.45 µM (inactive) in [1]; 11.5 µM (inactive) in assay [16]; 10.9 µM (inactive) in assay [2]; 5.92 µM (inactive) in assay [3]; 15.1 µM (inactive) in assay [4]; 3.77 µM (inactive) in [5]. Moreover, the GI50 was 4.35 µM (inactive) in assay [17]; 14.5 µM (inactive) in assay [6]; 12.2 µM (inactive) in [7]; 4.68 µM (inactive) in [8]; 3.53 µM (inactive) in assay [9]; 10.1 µM (inactive) in assay [10]. For the same compound, the GI50 was 11.7 µM (inactive) in assay [11]; 3.73 µM (inactive) in assay [12]; 3.44 µM (inactive) in assay [13]; 12.8 µM (inactive) in assay [14]; 4.72 µM (inactive) in assay [15].

Take `CC(C)CC(NC(=O)c1cccc(O)c1O)C(=O)NCc1cc(CNC(=O)C(CC(C)C)NC(=O)c2cccc(O)c2O)cc(CNC(=O)C(CC(C)C)NC(=O)c2cccc(O)c2O)c1` (stereo unspecified): the GI50 was 4.33 µM (inactive) in [1]; 15 µM (inactive) in assay [16]; 20.6 µM (inactive) in assay [2]; 3.92 µM (inactive) in assay [3]; 12.8 µM (inactive) in [4]; 2.82 µM (inactive) in assay [5]. In addition, the GI50 in assay [17] is 13.6 µM (inactive); in assay [6] it was 16.2 µM (inactive); in [7], 24.8 µM (inactive); in [8], 4.14 µM (inactive); in assay [9], 15.6 µM (inactive); in assay [10] it was 42 µM (inactive). Further, the GI50 in [12] was 4.49 µM (inactive); in [13], 5.47 µM (inactive); in assay [14], 46.3 µM (inactive); in [15], 40.6 µM (inactive).

Consider `CC1=C(C(=O)Nc2cc(F)c(F)cc2F)C(c2cccc([N+](=O)[O-])c2)C(C(=O)Nc2ccccc2C(F)(F)F)=C(C)N1` (stereo unspecified), for which the GI50 in assay [1] is 16.8 µM (inactive); in [16], 22.4 µM (inactive); in [2], 12.6 µM (inactive); in [3] it was 13.8 µM (inactive); in assay [4], 22.1 µM (inactive); in [5], 16.8 µM (inactive). For the same compound, the GI50 in assay [17] is 30.7 µM (inactive); in assay [6], 31.8 µM (inactive); in [7], 11.2 µM (inactive); in assay [8], 13 µM (inactive); in assay [9], 16.6 µM (inactive); in assay [10] it was 17.3 µM (inactive). For the same compound, the GI50 was 22.8 µM (inactive) in assay [11], 20.7 µM (inactive) in [13], 15.8 µM (inactive) in assay [14] and 27 µM (inactive) in assay [15].

Take `COc1cc2c(cc1O)C=NCC2`: the GI50 in [1] is 78.5 µM (inactive); in [2], > 100 µM (inactive); in assay [3], > 100 µM (inactive); in assay [4], 63.5 µM (inactive); in [5], > 100 µM (inactive); in assay [17], > 100 µM (inactive). Moreover, the GI50 in [6] is > 100 µM (inactive); in assay [7], 94.2 µM (inactive); in assay [8] it was > 100 µM (inactive); in [9], > 100 µM (inactive); in [10] it was > 100 µM (inactive); in assay [11] it was > 100 µM (inactive). Moreover, the GI50 in assay [12], in assay [13], in assay [14] and in assay [15] was > 100 µM (inactive) throughout.

In the case of `CN(C)/C(N)=N\C#N`, the GI50 in assay [1], in [16], in [2], in [3], in assay [4] and in assay [5] was > 100 µM (inactive) throughout. Moreover, the GI50 is > 100 µM (inactive) in assay [17]; > 100 µM (inactive) in assay [6]; > 100 µM (inactive) in [7]; 64.7 µM (inactive) in [8]; > 100 µM (inactive) in [9]; > 100 µM (inactive) in [10]. The GI50 in assay [11], in assay [12], in assay [13], in assay [14] and in [15] was > 100 µM (inactive) each time.

Turning to `CCN(c1ccccc1)[C@H]1C(=O)N(c2ccc([N+](=O)[O-])cc2)[C@H]1c1ccc(OC)cc1`, the GI50 in assay [1] was > 100 µM (inactive); in assay [2], 46.9 µM (inactive); in [3] it was 63.5 µM (inactive); in [4] it was > 100 µM (inactive); in assay [5], > 100 µM (inactive); in assay [17], > 100 µM (inactive). Also, the GI50 in [6] was > 100 µM (inactive); in assay [7], 80.7 µM (inactive); in assay [8] it was > 100 µM (inactive); in [9], > 100 µM (inactive); in [10], > 100 µM (inactive); in [12], 35.7 µM (inactive). Besides, the GI50 in assay [13] is 35.2 µM (inactive); in assay [14], 73.3 µM (inactive); in [15], > 100 µM (inactive).

For the compound `O=[N+]([O-])c1ccc(C[P+]2(c3ccccc3)CCCCC2)cc1.[O-][Cl+3]([O-])([O-])[O-]`, the GI50 in [1] is > 100 µM (inactive); in assay [16], > 100 µM (inactive); in [2], > 100 µM (inactive); in assay [3] it was > 100 µM (inactive); in assay [4], > 100 µM (inactive); in [5] it was 97.7 µM (inactive). Moreover, the GI50 in assay [17], in assay [6], in [7], in [8], in [9] and in assay [10] was > 100 µM (inactive) each time. For the same compound, the GI50 in [11], in [12], in assay [13] and in assay [15] was > 100 µM (inactive) throughout.

For the compound `CCOP1(=O)C=CC(Cl)=C(C)C1` (stereo unspecified), the GI50 in assay [1] is 19.9 µM (inactive); in assay [16] it was 27.2 µM (inactive); in assay [2] it was 4.67 µM (inactive); in assay [3] it was 4.04 µM (inactive); in [4], 17.7 µM (inactive); in [5], 12.4 µM (inactive). In addition, the GI50 in assay [17] was 67.5 µM (inactive); in [6], 19.5 µM (inactive); in assay [7], 29.2 µM (inactive); in assay [8] it was 6.82 µM (inactive); in assay [9], 13 µM (inactive); in assay [10] it was 15.6 µM (inactive). Further, the GI50 is 14.7 µM (inactive) in [11]; 15 µM (inactive) in [12]; 17.8 µM (inactive) in assay [13]; 10.5 µM (inactive) in assay [14]; 19.6 µM (inactive) in assay [15].

As to `Cc1ccc(NC(=O)CC/C(CC(=O)c2ccc(Cl)cc2)=N\NC(=O)C(=O)NN)cc1C`, the GI50 in assay [1], in [16], in assay [2], in assay [3], in [4] and in assay [5] was > 100 µM (inactive) in each case. In addition, the GI50 in assay [17], in assay [6], in [7], in [8], in assay [9] and in [10] was > 100 µM (inactive) throughout. For the same compound, the GI50 in assay [11], in assay [12], in assay [13], in assay [14] and in assay [15] was > 100 µM (inactive) in each case.

Consider `COc1cc(C2c3cc4c(cc3[C@@H](N(C)c3ccc(N(C)C)cc3)C3COC(=O)C23)OCO4)cc(OC)c1O` (stereo partly specified), for which the GI50 in [1] was 0.213 µM (active); in [16], 1.75 µM (inactive); in assay [2], 4.34 µM (inactive); in assay [3], 0.0589 µM (active); in assay [4], 0.383 µM (active); in [5], 0.312 µM (active). Moreover, the GI50 in assay [17] was 2.15 µM (inactive); in assay [6], 18.5 µM (inactive); in assay [7], 26.8 µM (inactive); in assay [8] it was 0.923 µM (active); in assay [9], 0.291 µM (active); in [10], 0.489 µM (active). The GI50 is 0.305 µM (active) in assay [11]; 0.472 µM (active) in assay [12]; 0.255 µM (active) in assay [13]; 0.491 µM (active) in assay [14]; 0.365 µM (active) in assay [15].

The record behind these values is ChEMBL document CHEMBL1201862, “PubChem BioAssay data set” (2004).
